Measured values: patent US8894993B2, “Mitochondria-targeted antioxidants” (Natreon Inc., priority 2006, dated 2014)

Assays:
[1] = DBP products in mice liver mitochondria before and after DBPs treatment, HPTLC; format: in vivo, Swiss Albino mice; conditions: one hour after i.p. 4:1 mixture of 3,8-(OH)2-DBP and 3-OH-DBP 20 mg/Kg
Experimental: Mitochondria were isolated from heart and liver of chicken, goat and mice following a published procedure (Liu Y, Deng F, Zhao R and Qu S, Chemosphere, 40(8):851-854, 2000). […] The tissue was cut into small pieces, homogenized and centrifuged at 900 g for one minute. The supernatant was again centrifuged twice, for 20 minutes each time at 900 g. The sediment at each step was discarded. The clear supernatant was centrifuged twice at 12,000 g, 20 minutes each time, to form pellets of a mitochondria-enriched fraction. The fraction was divided into two parts. One part was resuspended in a measured volume of distilled water and sonicated (10 min×2). […] The two extracts were subjected to comprehensive HPTLC and HPLC analyses for detection and quantitation of DBPs and their equivalents. […] One hour after administration the animals were sacrificed and mitochondria from liver were isolated and analyzed as described for Example 6. […] Mobile Phase—Chloroform:Methanol 90:10 Sample application—CAMAG LINOMAT 5 (Automated applicator) Detection—240 nm (CAMAG TLC SCANNER 3) 3-OH-DBP and 3,8-(OH)2-DBP (and their conjugates) were detected in mitochondria of control mice by HPTLC. Administration of DBPs to the animals increased the amount of DBPs and its products in mitochondria as detected by using authentic markers of the two DBPs (Table 2).

[2] = Coenzyme Q in mice blood plasma and organs after oral feeding, HPLC; format: in vivo, Swiss albino mice; conditions: oral each 5 mg/Kg b.w. per day for 5 days
Experimental: One year old caged stressed Sprague-Dawley rats (250-270 gms) were fed the following, individually or in combination after suspension in 0.8% carboxymethyl cellulose: CoQ10 (5 mg/Kg b.w./day) and 3,8-(OH)2-DBP (5 mg/Kg b.w./day) for 5 days. Blood was collected by puncture of the retro-orbital plexus. The plasma was separated by centrifugation, extracted with methanol and subjected to HPLC. In another experiment, Swiss albino mice (20±2 g) were fed orally with—(a) 3,8-(OH)2-DBP; (b) CoQ10; (c) a combination of 3,8-(OH)2-DBP and CoQ10 and (d) 3,8-(OH)2-DBP and CoQ10 in a clathrated form with Shilajit-fusoms (each 5 mg/Kg b.w.), per day, for 5 days. The animals were subjected to hypoxic stress for 1 hour each day for 3 days from the 3rd day of the experiment. After the stipulated time-period, the content of CoQ10 and their conjugates with DBP were estimated in heart, kidney, liver (in wet weight basis) and in blood, by HPLC, after proper extraction from the tissues according to the procedure depicted in the literature (Rousseau, G and Varin, F, Determination of Ubiquinone-9 and 10 levels in rat tissues and blood by High Performance Liquid Chromatography with Ultraviolet detection. J. Chromat. Sci., 36(5): 247-252, 1998).
Column—RP C18 Xterra [250×4 mm]
(§1) Mobile phase—Methanol:Acetonitrile:Ethanol 30:30:40
(§2) Detection—PDA 275 nm for CoQ10
Bioavailability was more when CoQ10 and 3,8-(OH)2-DBP using the fulvic acid system. A systemic increment of CoQ10 was also observed in mice blood plasma and a few organs upon oral feeding of this formulation. The extent of the increment of CoQ10 was more when CoQ10 and 3,8-(OH)2-DBP were targeted to mitochondria using the fulvic acid delivery system (Table 5). A similar trend in the increment was also observed in the case of CoQ10-DBP conjugates when the fulvic acid system was used. […] Thus, concurrent supplementation of CoQ10 and 3,8-(OH)2-DBP [or 3-OH-DBP, which is systemically converted into 3,8-(OH)2-DBP] using a fulvic acid delivery system would efficiently perform their targeting to mitochondria. This can be regarded as effective therapeutic strategy against stress-induced oxidative damage of cells and DNA damage due to old-age.

[3] = test system: stress-induced lipid peroxidation of mouse liver mitochondria; assay: Stress-induced lipid peroxidation of mouse liver mitochondria (thiobarbituric acid reaction); format: in vivo, Swiss albino mice; conditions: oral each 5 mg/Kg b.w. per day for 5 days, hypoxic stress, control 0.495
Experimental: (§3) Swiss albino mice (20±g) were fed orally with—(a) 3,8-(OH)2-DBP; (b) CoQ10; (c) a combination of 3,8-(OH)2-DBP and CoQ10 and (d) 3,8-(OH)2-DBP and CoQ10 in a clathrated form with fusoms (each 5 mg/Kg b.w.), per day, for 5 days. The animals were subjected to hypoxic stress for 1 hour each day for 3 days from the 3rd day of the experiment. After the stipulated time-period, brain and liver of the animals were collected and mitochondria from the liver were separated as described previously (Liu Y, Deng F, Zhao R and Qu S, Chemosphere, 40(8):851-854, 2000). Lipid peroxidation in brain and liver-mitochondria was estimated by the method of Ohkawa et al. (Ohkawa H, Ohishi N and Yagi K, Assay for lipid peroxides in animal tissues by thiobarbituric acid reaction. Anal. Biochem., 95:351-358, 1979).

[4] = test system: stress-induced lipid peroxidation of mouse brain; assay: Stress-induced lipid peroxidation of mouse brain (thiobarbituric acid reaction); format: in vivo, Swiss albino mice; conditions: oral each 5 mg/Kg b.w. per day for 5 days, hypoxic stress, control 1.169
Experimental: as §3

[5] = Stability of reduced CoQ10 (CoQH2) by 3,8-(OH)2-DBP at different pH, HPLC; format: physicochemical; conditions: for Reduced CoQ10 remaining in control: no DBP
Experimental: Two mg of solid CoQ10 (SRL, India), in an airtight vial was dissolved in 1 ml of methanol. After thorough vortexing, 5 mg of solid NaBH4 (Merck India) was added, 1 mg at a time, to the yellow colored solution of CoQ10 in methanol and kept in an ice-bath for a few minutes. The vial was kept shut to avoid contact with air but opened occasionally to avoid generation of pressure inside due to accumulation of hydrogen. After the reduction reaction, a clear colorless solution was obtained to which methanolic solution of 3,8-(OH)2-DBP with a concentration of 1 mg/ml (>90% pure) was added in a ratio of 1:1 to obtain a final concentration of the mixture—reduced CoQ10 […] DBP 0.5 mg/ml. This solution was analyzed by HPLC for reduced CoQ10 content at different time intervals. A control was prepared in similar fashion except that no DBP was added. The pH of the solutions was determined to be 8 using pH paper. To obtain solutions of reduced CoQ10 with pH 7 and pH 3, aliquots of concentrated HCl were added to the methanolic solution of reduced CoQ10 at pH 8. Afterwards, a solution of DBP was added and analysis by HPLC at different time intervals was conducted, as before.
as §1
Detection—PDA 290 nm for reduced CoQ10

[6] = Inhibition of CoQ-CoQH2 aberrant metabolite formation during red-ox recycling, HPLC; format: physicochemical; conditions: in vitro
Experimental: Methanolic solution of coenzyme Q10 (1 mg/ml) was reduced by NaBH4 to pH 8 when the yellow solution became colorless. About 1 mg of 3,8-(OH)2-DBP was added to the solution and the mixture was analyzed by HPLC at different time intervals (0-80 min). A control CoQ10, without 3,8-(OH)2-DBP, was prepared similarly and analyzed at different time intervals (0-80 min).
Column—NovaPak RP C18 [250×4 mm]
as §1, §2
Reduced CoQ10 (CoQH2) has a tendency to rapidly autoxidize in the presence of air. […] The aberrant metabolites increased rapidly with time (Table 10).

[7] = Stability of reduced CoQ10 (CoQH2) by 3,8-(OH)2-DBP at different pH, HPLC; format: physicochemical

SMILES: O=c1oc2cc(O)ccc2c2cc(-c3cc4c(cc3O)c(=O)oc3cc(O)ccc34)c(O)cc12 [3,8-(OH)2-DBP-dimer, 3,3′,8,8′-tetrahydroxy-9,9′-bis-dibenzo-α-pyrone]
- Amount in mitochondria after DBP treatment [1]: 28.6 nmol/gm wet wt

SMILES: COC1=C(OC)C(=O)C(C/C=C(\C)CC/C=C(\C)CC/C=C(\C)CC/C=C(\C)CC/C=C(\C)CC/C=C(\C)CC/C=C(\C)CC/C=C(\C)CC/C=C(\C)CCC=C(C)C)=C(C)C1=O [CoQ10]
- concentration at 5 days ([2]; Swiss albino, mouse, blood): 810 nM
- Coenzyme Q: Heart ([2]; wet weight): 35.69 nmol/gm
- Coenzyme Q: Kidney ([2]; wet weight): 16.51 nmol/gm
- Coenzyme Q: Liver ([2]; wet weight): 19.41 nmol/gm
- OD Values at 532 nm (lipid peroxidation) [3]: 0.467
- OD Values at 532 nm (lipid peroxidation) [4]: 1.147

SMILES: COc1c(O)c(C)c(C/C=C(\C)CC/C=C(\C)CC/C=C(\C)CC/C=C(\C)CC/C=C(\C)CC/C=C(\C)CC/C=C(\C)CC/C=C(\C)CC/C=C(\C)CCC=C(C)C)c(O)c1OC [Reduced CoQ10, reference compound]
- Regenerated CoQ10 in absence of 3,8-(OH)2-DBP ([5]; autoxidation of CoQH2, pH 8, 0 min): 0 µg/mL
- Regenerated CoQ10 in absence of 3,8-(OH)2-DBP ([5]; autoxidation of CoQH2, pH 8, 60 min): 184.68 µg/mL
- Regenerated CoQ10 in absence of 3,8-(OH)2-DBP ([5]; autoxidation of CoQH2, pH 8, 80 min): 202.28 µg/mL
- Regenerated CoQ10 in absence of 3,8-(OH)2-DBP ([5]; autoxidation of CoQH2, pH 8, 100 min): 109.23 µg/mL
- Reduced CoQ10 remaining in control ([5]; pH 3, 0 hour): 100.00%
- Reduced CoQ10 remaining in control ([5]; pH 3, 48 hour): 57.25%
- Reduced CoQ10 remaining in control ([5]; pH 3, 72 hour): 61.95%
- Reduced CoQ10 remaining in control ([5]; pH 7, 0 hour): 100.00%
- Reduced CoQ10 remaining in control ([5]; pH 7, 48 hour): 7.73%
- Reduced CoQ10 remaining in control ([5]; pH 7, 72 hour): 3.70%
- Reduced CoQ10 remaining in control ([5]; pH 8, 0 min, methanol): 100.00%
- Reduced CoQ10 remaining in control ([5]; pH 8, 40 min, methanol): 79.18%
- Reduced CoQ10 remaining in control ([5]; pH 8, 60 min, methanol): 54.09%
- Reduced CoQ10 remaining in control ([5]; pH 8, 80 min, methanol): 33.17%
- Reduced CoQ10 remaining in control ([5]; pH 8, 100 min, methanol): 20.87%
- Relative percentage of aberrant metabolites in absence of 3,8-(OH)2-DBP ([6]; pH 8, 0 minutes): 0%
- Relative percentage of aberrant metabolites in absence of 3,8-(OH)2-DBP ([6]; pH 8, 40 minutes): 93%
- Relative percentage of aberrant metabolites in absence of 3,8-(OH)2-DBP ([6]; pH 8, 80 minutes): 96%
- Regenerated CoQ10 in absence of 3,8-(OH)2-DBP ([7]; autoxidation of CoQH2, pH 8, 20 min): 5.49 µg/mL
- Regenerated CoQ10 in absence of 3,8-(OH)2-DBP ([7]; autoxidation of CoQH2, pH 8, 40 min): 72.98 µg/mL
